In ChEMBL document CHEMBL5385878, “Synthesis and structure-activity optimization of 7-azaindoles containing aza-β-amino acids targeting the influenza PB2 subunit” (Eur J Med Chem, 2023):
The source made the active and inactive calls. The calls are words filed in the database; no cut-off is given here.

Tests used:
[1] = target: Polymerase basic protein 2 (Influenza A virus (strain A/Puerto Rico/8/1934 H1N1)) (UniProt P03428); test: Inhibition of influenza A virus polymerase PB2 expressed in HEK293T cells cotransfected with PGK-renilla-luciferase assessed as remaining activity at 10 uM pretreated with cells for 2 hrs followed by enzyme addition and measured after 24 hrs by dual-Glo luciferase assay relative to control; assay type: cell-based; settings: time 26.0 hrs
Sequence of Polymerase basic protein 2 (Influenza A virus (strain A/Puerto Rico/8/1934 H1N1)) (P03428 whole entry, looked up, the tested form may be a part): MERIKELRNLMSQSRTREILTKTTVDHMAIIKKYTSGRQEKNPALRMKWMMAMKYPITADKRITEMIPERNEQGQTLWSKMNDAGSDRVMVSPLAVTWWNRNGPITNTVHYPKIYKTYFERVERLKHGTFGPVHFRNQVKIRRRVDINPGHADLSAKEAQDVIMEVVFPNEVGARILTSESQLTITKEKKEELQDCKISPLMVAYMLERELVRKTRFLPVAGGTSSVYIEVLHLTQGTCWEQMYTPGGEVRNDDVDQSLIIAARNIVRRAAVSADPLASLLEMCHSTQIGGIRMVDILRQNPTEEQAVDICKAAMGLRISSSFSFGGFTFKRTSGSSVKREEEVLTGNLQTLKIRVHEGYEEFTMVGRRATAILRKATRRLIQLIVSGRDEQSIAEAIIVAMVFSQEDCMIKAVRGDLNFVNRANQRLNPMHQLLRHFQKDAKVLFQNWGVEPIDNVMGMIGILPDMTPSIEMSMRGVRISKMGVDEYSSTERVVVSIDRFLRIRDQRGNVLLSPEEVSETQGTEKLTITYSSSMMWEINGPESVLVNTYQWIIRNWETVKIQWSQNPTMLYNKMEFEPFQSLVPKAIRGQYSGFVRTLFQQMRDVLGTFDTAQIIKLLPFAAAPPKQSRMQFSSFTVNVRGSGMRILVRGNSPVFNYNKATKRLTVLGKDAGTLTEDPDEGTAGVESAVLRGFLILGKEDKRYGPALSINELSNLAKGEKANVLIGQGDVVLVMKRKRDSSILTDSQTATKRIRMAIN

[2] = target: Polymerase basic protein 2 (Influenza A virus (strain A/Puerto Rico/8/1934 H1N1)) (UniProt P03428); test: Inhibition of influenza A virus polymerase PB2 expressed in HEK293T cells cotransfected with PGK-renilla-luciferase at 10 uM pretreated with cells for 2 hrs followed by enzyme addition and measured after 24 hrs by dual-Glo luciferase assay relative to control; assay type: cell-based; settings: time 26.0 hrs
[3] = target: T1, Polymerase basic protein 2 (Influenza A virus (strain A/Puerto Rico/8/1934 H1N1), UniProt P03428); test: Inhibition of influenza A virus polymerase PB2 expressed in HEK293T cells cotransfected with PGK-renilla-luciferase pretreated with cells for 2 hrs followed by enzyme addition and measured after 24 hrs by dual-Glo luciferase assay; assay type: cell-based
T1 sequence (P03428 whole entry): as the sequence (P03428 whole entry, looked up, the tested form may be a part) above

[4] = system: Influenza A virus; test: Antiviral activity against Influenza A virus A/WSN/33(H1N1) infected in A549 cells assessed as reduction in cell cytopathic effect incubated with cells for 2 hrs prior to viral infection followed by MDCK cells addition at 24 hrs pi and measured after 72 hrs by Reed-Muench method; assay type: functional, organism-based
[5] = system: Influenza A virus; test: Antiviral activity against Influenza A virus A/WSN/33(H1N1) infected in BALB/c mouse assessed as log reduction in lung viral titer at 12 mg/kg, po BID administered starting from 2 hrs before infection and measured on day 3 (reference value: 6.916 +/- 0.4736); assay type: functional; settings: time 3 day
[6] = system: Influenza A virus; test: Antiviral activity against Influenza A virus A/WSN/33(H1N1) infected in BALB/c mouse assessed as log10 reduction in viral titer at 12 mg/kg, po BID administered starting from 2 hrs before infection and measured on day 3; assay type: functional; settings: time 3 day
[7] = Cytotoxicity against human A549 cells assessed as reduction in cell viability incubated for 96 hrs by CCK-8 method; assay type: toxicity, cell-based
[8] = Selectivity index, ratio of CC50 for human A549 cells to EC50 for antiviral activity against Influenza A virus A/WSN/33(H1N1) infected in A549 cells; assay type: toxicity, cell-based; settings: read-out: Ratio CC50/EC50
[9] = target: T1, Polymerase basic protein 2; test: Binding affinity to recombinant Influenza A virus polymerase PB2 cap-binding domain (318 to 413 residues) assessed as dissociation constant by ITC method
[10] = system: Influenza A virus; test: Antiviral activity against wild type Influenza A/WSN/33 at 0.3 uM; assay type: functional, organism-based
[11] = target: Voltage-gated inwardly rectifying potassium channel KCNH2 (Homo sapiens, UniProt Q12809); test: Inhibition of hERG by manual patch clamp method; assay type: toxicity
Sequence of Voltage-gated inwardly rectifying potassium channel KCNH2 (Q12809 whole entry): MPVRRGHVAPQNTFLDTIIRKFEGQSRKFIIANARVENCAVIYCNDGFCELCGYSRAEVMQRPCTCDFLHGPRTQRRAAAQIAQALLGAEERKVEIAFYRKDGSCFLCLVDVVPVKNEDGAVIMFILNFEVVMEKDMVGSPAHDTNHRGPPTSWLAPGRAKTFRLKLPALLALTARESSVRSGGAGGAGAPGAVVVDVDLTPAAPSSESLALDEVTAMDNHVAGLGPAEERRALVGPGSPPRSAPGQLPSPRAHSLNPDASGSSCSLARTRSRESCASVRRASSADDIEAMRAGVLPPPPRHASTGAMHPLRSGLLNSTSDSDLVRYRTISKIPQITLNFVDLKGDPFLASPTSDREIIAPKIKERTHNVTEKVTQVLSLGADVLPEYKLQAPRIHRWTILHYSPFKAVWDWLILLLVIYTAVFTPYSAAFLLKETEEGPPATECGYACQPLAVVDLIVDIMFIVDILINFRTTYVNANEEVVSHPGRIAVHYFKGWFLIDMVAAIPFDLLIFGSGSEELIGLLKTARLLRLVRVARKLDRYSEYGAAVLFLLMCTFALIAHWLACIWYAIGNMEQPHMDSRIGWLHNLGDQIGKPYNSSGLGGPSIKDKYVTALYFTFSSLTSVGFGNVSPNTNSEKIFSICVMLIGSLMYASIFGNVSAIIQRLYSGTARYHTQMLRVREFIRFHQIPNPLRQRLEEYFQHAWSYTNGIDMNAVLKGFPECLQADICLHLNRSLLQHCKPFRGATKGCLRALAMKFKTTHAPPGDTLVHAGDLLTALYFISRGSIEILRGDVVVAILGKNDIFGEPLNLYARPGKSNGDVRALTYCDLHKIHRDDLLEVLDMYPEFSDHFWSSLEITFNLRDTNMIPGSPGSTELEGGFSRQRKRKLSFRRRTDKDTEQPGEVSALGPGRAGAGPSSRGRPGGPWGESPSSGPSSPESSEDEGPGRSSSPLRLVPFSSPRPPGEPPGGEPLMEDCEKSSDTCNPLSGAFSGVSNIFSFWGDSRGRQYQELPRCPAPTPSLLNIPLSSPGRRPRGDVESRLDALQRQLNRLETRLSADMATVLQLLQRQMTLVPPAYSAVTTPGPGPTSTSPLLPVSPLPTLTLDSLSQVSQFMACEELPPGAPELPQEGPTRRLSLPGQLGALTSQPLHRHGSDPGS

[12] = Stability in mouse plasma assessed as half life; assay type: ADME, cell-free
[13] = Toxicity in BALB/c mouse assessed as animal death at 40 mg/kg, po administered once daily for 3 days; assay type: organism-based; settings: in vivo, 72 h, time 3 day
[14] = Toxicity in BALB/c mouse assessed as poisoning symptom at 40 mg/kg, po administered once daily for 3 days; assay type: organism-based; settings: in vivo, 72 h, time 3 day
[15] = Toxicity in BALB/c mouse assessed as change in body weight at 40 mg/kg, po administered for 3 days; assay type: organism-based; settings: in vivo, 72 h, time 3 day
[16] = Toxicity in BALB/c mouse assessed as change in ALT level at 40 mg/kg, po administered for 3 days; assay type: organism-based; settings: in vivo, 72 h, time 3 day
[17] = Toxicity in BALB/c mouse assessed as change in AST level at 40 mg/kg, po administered for 3 days; assay type: organism-based; settings: in vivo, 72 h, time 3 day
[18] = Toxicity in BALB/c mouse assessed as change in Cr level at 40 mg/kg, po administered for 3 days; assay type: organism-based; settings: in vivo, 72 h, time 3 day
[19] = Toxicity in BALB/c mouse infected with Influenza A virus A/WSN/33(H1N1) assessed as body weight loss at 12 mg/kg, po BID administered starting from 2 hrs before infection and measured on day 3; assay type: organism-based; settings: in vivo, 72 h, time 3 day
[20] = system: Influenza A virus; test: Antiviral activity against Influenza A virus A/WSN/33(H1N1) infected in BALB/c mouse assessed as recovery of AST level at 12 mg/kg, po BID administered starting from 2 hrs before infection and measured on day 3; assay type: functional, organism-based; settings: time 3.0 day
[21] = system: Influenza A virus; test: Antiviral activity against Influenza A virus A/WSN/33(H1N1) infected in BALB/c mouse assessed as recovery of ALT level at 12 mg/kg, po BID administered starting from 2 hrs before infection and measured on day 3; assay type: functional, organism-based; settings: time 3.0 day
[22] = system: Influenza A virus; test: Antiviral activity against Influenza A virus A/WSN/33(H1N1) infected in BALB/c mouse assessed as increase in survival ratio at 12.5 to 25 mg/kg, po BID administered starting from 2 days post-infection to 9 days and measured for 15 days; assay type: functional; settings: dose 12.5-25 mg/kg, time 15 day
[23] = Toxicity in BALB/c mouse infected with Influenza A virus A/WSN/33(H1N1) assessed as body weight loss at 12.5 to 25 mg/kg, po BID administered starting from 2 days post-infection to 9 days and measured for 15 days; assay type: organism-based; settings: in vivo, 360 h, dose 12.5-25 mg/kg, time 15 day
[24] = target: Polymerase basic protein 2 (Influenza A virus (strain A/Puerto Rico/8/1934 H1N1)) (UniProt P03428); test: Potency index, ratio of m7GTP Kd to test compound Kd for recombinant Influenza A virus polymerase PB2 cap-binding domain (318 to 413 residues)

| Structure (SMILES) | Activity [1] | inhibition [2] | IC50 [3] | EC50 [4] | other results |
| --- | --- | --- | --- | --- | --- |
| O=C(O)[C@H]1C2CCC(CC2)[C@@H]1Nc1nc(-c2c[nH]c3ncc(F)cc23)ncc1F [PIMODIVIR] | 0.1% | 99.9% | 4 nM | 1 nM | log(activity) [5]: 0.964; log(activity) [6]: 6 |
| O=C(O)CN(Cc1ccccc1)Nc1nc(-c2c[nH]c3ncc(F)cc23)ncc1F | > 100% | 0% | – | – | – |
| O=C(O)CN(Nc1nc(-c2c[nH]c3ncccc23)ncc1F)C1CCCC1 | 58% | 42% | – | – | – |
| O=C(O)[C@@H]1Cc2ccccc2CN1Nc1nc(-c2c[nH]c3ncccc23)ncc1F | 73% | 27% | – | – | – |
| O=C(O)CN(Nc1nc(-c2c[nH]c3ncccc23)ncc1F)C1CCCCC1 | 34% | 65% | – | – | – |
| O=C(O)CN(Nc1nc(-c2c[nH]c3ncc(F)cc23)ncc1F)C1CCCC1 | 46% | 54% | – | – | – |
| CC(C)(C)N(CC(=O)O)Nc1nc(-c2c[nH]c3ncccc23)ncc1F | 0.2% | 99.8% | 290 nM | 170 nM | CC50 at 96 h [7]: > 100 µM; selectivity ratio [8]: > 597; Kd [9]: 468 nM |
| O=C(O)[C@@H]1CCCCN1Nc1nc(-c2c[nH]c3ncc(F)cc23)ncc1F | 12% | 88% | 1450 nM | 1150 nM | CC50 at 96 h [7]: > 100 µM; selectivity ratio [8]: > 87 |
| O=C(O)CN(Nc1nc(-c2c[nH]c3ncccc23)ncc1F)C1CCC1 | > 100% | 0% | – | – | – |
| CC(C)(C)CN(CC(=O)O)Nc1nc(-c2c[nH]c3ncccc23)ncc1F | 65% | 35% | – | – | – |
| CCOC(=O)C1=C[C@@H](OC(CC)CC)[C@H](NC(C)=O)[C@@H](N)C1 [OSELTAMIVIR] | – | – | – | 40 nM | – |
| CC(C)(C)N(CC(=O)O)Nc1nc(-c2c[nH]c3ncc(F)cc23)ncc1F | 0.3% | 99.7% | 60 nM | 30 nM | CC50 at 96 h [7]: > 100 µM; selectivity ratio [8]: > 2920; Kd [9]: 46.2 nM; Activity [10]: Active; IC50 [11]: > 10 µM; half-life [12]: 720 min; Activity [13]: Non-Toxic; Activity [14]: Non-Toxic; Activity [15]: Non-Toxic; Activity [16]: Non-Toxic; Activity [17]: Non-Toxic; Activity [18]: Non-Toxic; log(activity) [5]: 4.988; log(activity) [6]: 2; Activity [19]: Non-Toxic; Activity [20]: Active; Activity [21]: Active; Activity [22]: 85.7%; Activity [23]: Non-Toxic; Ratio [24]: 3850 |
| O=C(O)[C@@H]1CC2(CC2)CN1Nc1nc(-c2c[nH]c3ncc(F)cc23)ncc1F | 21% | 79% | 3070 nM | 1450 nM | CC50 at 96 h [7]: 87 µM; selectivity ratio [8]: 60; Kd [9]: 145 nM |
| O=C(O)[C@@H]1CCCCN1Nc1nc(-c2c[nH]c3ncccc23)ncc1F | 67% | 33% | – | – | – |
| CC(C1CC1)N(CC(=O)O)Nc1nc(-c2c[nH]c3ncc(F)cc23)ncc1F (stereo not given) | 41% | 59% | – | – | – |
| O=C(O)[C@@H]1Cc2ccccc2CN1Nc1nc(-c2c[nH]c3ncc(F)cc23)ncc1F | 62% | 38% | – | – | – |
| O=C(O)[C@@H]1C[C@@H]2CCCC[C@@H]2N1Nc1nc(-c2c[nH]c3ncc(F)cc23)ncc1F | 0.1% | 99.9% | 360 nM | 50 nM | CC50 at 96 h [7]: 54.1 µM; selectivity ratio [8]: 1024; Kd [9]: 202 nM |
| O=C(O)[C@@H]1CCCN1Nc1nc(-c2c[nH]c3ncc(F)cc23)ncc1F | 62% | 38% | – | – | – |
